# The supplement of paper PMC10307832
# Tests used:
# Experiment in all cases: relative viability (nuclei count vs DMSO), 5 days (fraction); higher = more cells survive
# [1] = system: NCI-H1792
# In short: (§1)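 Relative viability divides the nuclei count in treated wells by that in vehicle wells. Lung cancer cell lines were seeded in 1536-well plates, dosed by pin tool the next day, and fixed and stained after 5 days in one step with final 0.05% Triton X-100, 1% formaldehyde and 1 ug/ml Hoechst. Dosing was a single drug or a fixed anchor-drug dose plus five library-drug doses (not always all listed) in √10 steps, and values are medians of duplicate plates imaged at 4×.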
# [2] = system: NCI-H1915
# In short: as §1
# [3] = system: NCI-H2085
# In short: as §1
# [4] = system: NCI-H2087
# In short: as §1
# [5] = system: NCI-H2228
# In short: as §1
# [6] = system: NCI-H322M
# In short: as §1
# [7] = system: NCI-H358
# In short: as §1
# [8] = system: NCI-H661
# In short: as §1
# [9] = system: NCI-H838
# In short: as §1
# [10] = system: PC-3 [JPC-3]
# In short: as §1
# [11] = system: RERF-LC-KJ
# In short: as §1
# [12] = system: SK-MES-1
# In short: as §1
# [13] = system: UMC-11
# In short: as §1
smiles,measurement,setting,value
CCCCCCCCCCCC1=C(O)C(=O)C=C(O)C1=O [Embelin] + Cc1nc(NC(=O)N2CCC[C@H]2C(N)=O)sc1-c1ccnc(C(C)(C)C(F)(F)F)c1 [Alpelisib] (partner 2 µM),relative viability,[1]; first compound 2.53 µM,0.785
same,relative viability,[1]; first compound 8 µM,0.588
same,relative viability,[2]; first compound 0.08 µM,1.12
same,relative viability,[2]; first compound 0.8 µM,1.15
same,relative viability,[2]; first compound 2.53 µM,1.11
same,relative viability,[2]; first compound 8 µM,1.08
same,relative viability,[3]; first compound 0.08 µM,0.944
same,relative viability,[3]; first compound 0.8 µM,0.999
same,relative viability,[3]; first compound 2.53 µM,1.11
same,relative viability,[3]; first compound 8 µM,0.999
same,relative viability,[4]; first compound 0.08 µM,0.988
same,relative viability,[4]; first compound 0.8 µM,1.13
same,relative viability,[4]; first compound 2.53 µM,1.03
same,relative viability,[4]; first compound 8 µM,1.08
same,relative viability,[5]; first compound 0.08 µM,0.705
same,relative viability,[5]; first compound 0.8 µM,0.781
same,relative viability,[5]; first compound 2.53 µM,0.793
same,relative viability,[5]; first compound 8 µM,0.729
same,relative viability,[6]; first compound 0.08 µM,0.833
same,relative viability,[6]; first compound 0.8 µM,0.801
same,relative viability,[6]; first compound 2.53 µM,0.856
same,relative viability,[6]; first compound 8 µM,0.648
same,relative viability,[7]; first compound 0.08 µM,0.852
same,relative viability,[7]; first compound 0.8 µM,0.958
same,relative viability,[7]; first compound 2.53 µM,1.09
same,relative viability,[7]; first compound 8 µM,0.918
same,relative viability,[8]; first compound 0.08 µM,0.612
same,relative viability,[8]; first compound 0.8 µM,0.97
same,relative viability,[8]; first compound 2.53 µM,0.92
same,relative viability,[8]; first compound 8 µM,0.756
same,relative viability,[9]; first compound 0.08 µM,1.01
same,relative viability,[9]; first compound 0.8 µM,1
same,relative viability,[9]; first compound 2.53 µM,1.12
same,relative viability,[9]; first compound 8 µM,1.11
same,relative viability,[10]; first compound 0.08 µM,1.03
same,relative viability,[10]; first compound 0.8 µM,0.988
same,relative viability,[10]; first compound 2.53 µM,1.08
same,relative viability,[10]; first compound 8 µM,1.05
same,relative viability,[11]; first compound 0.08 µM,0.856
same,relative viability,[11]; first compound 0.8 µM,0.815
same,relative viability,[11]; first compound 2.53 µM,1.07
same,relative viability,[11]; first compound 8 µM,0.865
same,relative viability,[12]; first compound 0.08 µM,0.902
same,relative viability,[12]; first compound 0.8 µM,1.15
same,relative viability,[12]; first compound 2.53 µM,0.96
same,relative viability,[12]; first compound 8 µM,0.876
same,relative viability,[13]; first compound 0.08 µM,0.969
same,relative viability,[13]; first compound 0.8 µM,1.07
same,relative viability,[13]; first compound 2.53 µM,1.24
same,relative viability,[13]; first compound 8 µM,1.2
